“Also recorded” adds a separate entry of the source.
System: Male Wistar rats
Experiment: Conditioned avoidance response (CAR) test of antipsychotic activity
Assay type: in vivo, rat
Conditions: for ED50: Rattus norvegicus, ip, read-out: ED50 (escape response), dose required to produce 50% of the maximum response; for dose of compound required to produce 5 escapes / dose of compound required to produce 8 escapes: from fitted line
From the text: In the CAR paradigm, a rat is trained in a two chamber shuttle box to respond to a conditioned stimulus (auditory) by negative reinforcement. If the animal fails to move to the other chamber upon presentation of an auditory stimulus, a mild foot shock is applied to the side where the rat is located. The rat learns to avoid the mild foot shock by moving to the other chamber upon initiation of the auditory signal, termed a conditioned avoidance response. Crossing to the other chamber during administration of the shock is termed an escape response. If a rat fails to move to the other chamber even upon administration of the foot shock, the rat is considered to have an escape failure.
Rats were trained every day for 3 to 4 weeks. In the training session, rats were placed in the CAR two-way shuttle box and the training period of 20 trials ensued. A trial consisted of a 10-sec presentation of an 80 dB white noise followed by a scrambled 0.6 mA foot shock lasting up to 20 sec. The inter-trial interval ranged from 20-60 sec. The rat learned to avoid shock by moving from one compartment to the other when the conditioned stimulus was presented (a conditioned avoidance response). A rat was deemed sufficiently trained if it avoided the shock when presented with the conditioned stimulus at least 19 times out of the 20 trials.
On test day, trained animals were acclimated in the test room for 30 minutes prior to testing. They were then dosed with compound and placed in the CAR two-way shuttle box. In the test, 20 trials were performed on each rat. In each trial the conditioned stimulus was applied (10-sec presentation of 80 dB white noise), followed by the foot shock (a scrambled 0.6 mA foot shock lasting up to 20 sec). If the animal moved to the other chamber on presentation of the conditioned stimulus, it was scored as a conditioned avoidance response. If it moved upon presentation of the foot shock, it was scored as an escape. […] Antipsychotic efficacy is evident by an increase in the number of escapes. Data were analyzed by analysis of variance (ANOVA) followed by post-hoc comparisons with the Bonferroni Test when appropriate. An effect is considered significant if p<0.05. Outliers defined as two standard deviations above or below the mean were detected and were removed from all analysis. Results are reported as mean±SEM for number of escapes.
Animals: Male Wistar rats from Harlan (Indianapolis, Ind.) were used in the study. Upon receipt, rats were assigned unique identification numbers and were group housed with 3 rats per cage in polycarbonate cages with micro-isolator filter tops. All rats were examined, handled, and weighed prior to initiation of the study to assure adequate health and suitability. The rats were maintained at 12/12 light/dark cycle with lights on at 6:00 A.M. The room temperature was maintained between 20 and 23° C. with a relative humidity maintained around 50%. Chow and water were provided ad libitum for the duration of the study. For each test, animals were randomly assigned across treatment groups. Each treatment group contained 10 animals at time of testing.
Test Compounds: Risperidone (0.03, 0.1, 0.3, and 1 mg/kg) was dissolved in 10% DMSO and administered i.p. 30 min prior to testing at a dose volume of 1 ml/kg. […] The vehicle control group received 10% DMSO (i.p., 30 min pretreatment, 1 ml/kg) immediately followed by administration of sterile water (p.o., 1 ml/kg).
Test Compounds: Olanzapine (0.3, 0.6, 1 and 3 mg/kg) was dissolved in 10% DMSO and administered i.p. 30 min prior to testing at a dose volume of 1 ml/kg.
10% DMSO (i.p., 30 min pretreatment, 1 ml/kg) immediately followed by administration of sterile water (p.o., 1 ml/kg) was used as the vehicle control group.
Test Compounds: Risperidone (0.1, 0.3, and 1 mg/kg) was dissolved in 10% DMSO and administered i.p. 30 min prior to testing at a dose volume of 1 ml/kg.

[1] = combination with R,R,R-DHTBZ 0.15 mg/kg vs olanzapine singly, rat
[2] = olanzapine i.p. administered singly, rat
[3] = combination with Compound 5-1 0.3 mg/kg vs risperidone singly, rat
[4] = combination with R,R,R-DHTBZ 0.15 mg/kg vs risperidone singly, rat
[5] = risperidone i.p. administered singly, rat

COc1cc2c(cc1OC)[C@H]1C[C@@H](CO)[C@H](CC(C)C)CN1CC2 [Compound 5-1, [(2R,3S,11bR)-9,10-Dimethoxy-3-(2-methylpropyl)-1H,2H,3H,4H,6H,7H,11bH-pyrido[2,1-a]isoquinolin-2-yl]methanol]
number of escapes compared to vehicle (Compound 5-1 0.3 mg/kg p.o. administered singly, 60 min prior to testing, rat, 0.3 mg/kg): did not result in changes from the vehicle results; also recorded: showed no antipsychotic activity; also recorded: did not increase

COc1cc2c(cc1OC)[C@H]1C[C@@H](O)[C@H](CC(C)C)CN1CC2 [R,R,R-DHTBZ, (2R,3R,11bR)-3-isobutyl-9,10-dimethoxy-1,3,4,6,7,11b-hexahydro-2H-pyrido[2,1-a]isoquinolin-2-ol]
number of escapes compared to vehicle (R,R,R-DHTBZ 0.15 mg/kg p.o. administered singly, 30 min prior to testing, rat): did not increase; also recorded: did not result in changes from the vehicle results | number of escapes compared to vehicle (R,R,R-DHTBZ 0.15 mg/kg p.o. administered singly, 30 min prior to testing, rat, listed as R,R,R DHTBZ): showed no antipsychotic activity

Cc1cc2c(s1)Nc1ccccc1N=C2N1CCN(C)CC1 [olanzapine]
ED50: 1.2 mg/kg | reduction of the olanzapine dose (combination with Compound 5-1 0.3 mg/kg vs olanzapine singly, rat): 80% | decrease of ED50 of olanzapine [1]: approximately 2 fold | reduction of the olanzapine dose [1]: 50% | dose necessary to show antipsychotic efficacy in the CAR paradigm [2]: 1 mg/kg | dose of compound required to produce 5 escapes [2]: 0.93 mg/kg | dose of compound required to produce 5 escapes (olanzapine i.p. in combination with Compound 5-1 0.3 mg/kg p.o., rat): 0.18 mg/kg | dose of olanzapine resulting in antipsychotic activity (olanzapine i.p. with addition of Compound 5-1 0.3 mg/kg p.o., rat): 0.6 mg/kg | dose of olanzapine resulting in antipsychotic activity (olanzapine i.p. with addition of R,R,R-DHTBZ 0.15 mg/kg p.o., rat): 0.6 mg/kg

Cc1nc2n(c(=O)c1CCN1CCC(c3noc4cc(F)ccc34)CC1)CCCC2 [risperidone]
ED50: 0.14 mg/kg | decrease of risperidone dose required to produce 8 escapes [3]: approximately 7 fold | reduction of the risperidone dose [3]: 86% | decrease of ED50 of risperidone [4]: approximately 6 fold | reduction of the risperidone dose [4]: 83% | number of escapes compared to vehicle (risperidone 0.1 mg/kg i.p. administered singly, 30 min prior to testing, rat): did not result in changes from the vehicle results; also recorded: did not increase | dose necessary to show antipsychotic efficacy in the CAR paradigm [5]: 0.3 mg/kg | dose of compound required to produce 8 escapes [5]: 0.26 mg/kg | dose of compound required to produce 8 escapes (risperidone i.p. in combination with Compound 5-1 0.3 mg/kg p.o., rat): 0.038 mg/kg | doses of risperidone resulting in antipsychotic activity (risperidone i.p. with addition of Compound 5-1 0.3 mg/kg p.o., rat): 0.1 mg/kg
